Reference: patent US11420960B2, “Use of 5-oxazolidine-2,4-dione C-glycoside derivatives as moisturizer for the skin” (L'OREAL, priority 2018, dated 2022)

Tested on: isolated stratum corneum (SC)
Experiment: Evaluation of the moisturizing potential on isolated stratum corneum by measurement with a Corneometer
Settings: for Mean DHCMiactive agent corr: 5% by weight in water/n-propanol (80/20), 5 μl/cm2 on SC, T4h vs T0h, 75% relative humidity, 25° C., relative percentage with carrier control 0% and glycerol 100%; for dielectric capacitance of the stratum corneum (SC): compounds at 5% by weight
Protocol: B): Evaluation of the Moisturizing Potential on Isolated Stratum Corneum by Measurement with a Corneometer
A test was performed to evaluate the moisturizing potential of the compounds of the invention formulated in an aqueous solution to an amount of 5% by weight relative to the total weight of the composition.
The technique makes it possible to measure the dielectric capacitance of the stratum corneum (SC), which depends on the mean dielectric permittivity value of the tissue. The dielectric permittivity varies greatly with the amount of water contained in the SC.
The SC samples are conditioned at 75% relative humidity and at 25° C. before/during the measurements and the treatment. The capacitance measurement is performed using a Corneometer™ (Courage & Khazaka, Germany).
The compound tested, compounds 1, 2 and 3 according to the invention or a moisturizing active agent such as glycerol (humectant positive control), is dissolved in a water/n-propanol mixture (80/20) and the solution is deposited onto the SC at a rate of 5 μl/cm^2 followed by air-drying for a total duration of 4 h.
A measurement is taken at T0h, before the treatment, and a measurement T4h is taken after total drying of the treatment.
The variation in the level of moisturization between T0h and T4h is calculated for each condition tested and compared to the references (carrier control and positive control) and to its T0h. The experiments are carried out on at least two different batches of SC and three samples of SC per condition tested.
The variation in the corneometer signal (HCM) after treatment is calculated for each SC sample: DHCMi=HCMi(T4h)−HCMi(T0h).
The results are then expressed as relative percentage in relation to the references, the carrier control and the glycerol positive control corresponding to a level of 0% and 100%, respectively.
Thus, for each experiment, the following are measured: • For the carrier control: DHCMicarrier=HCMicarrier(T4h)−HCMicarrier(T0h) • For the positive control: DHCMiglycerol=HCMiglycerol(T4h)−HCMiglycerol(T0h) • For the active agent: DHCMiactive agent=HCMiactive agent(T4h)−HCMiactive agent(T0h) • % DHCMiactive agent=(DHCMiactive agent−DHCMicarrier)/((DHCMiglycerol−DHCMicarrier) • As specified above, according to this mode of calculation: • % DHCMicarrier=0% • % DHCMiglycerol=100%
The moisturizing potential of an active agent is therefore determined as relative percentage in relation to the positive control.

O=C1N=C(O)C(C2O[C@H](CO)[C@@H](O)[C@H](O)[C@H]2O)O1 (some centres unmarked) [Compound 1]
Mean DHCMiactive agent corr: 88% | dielectric capacitance of the stratum corneum (SC) in comparison with glycerol at the same concentration (in words, 5% by weight): of the same order | dielectric capacitance of the stratum corneum (SC) (in words): high

O=C1N=C(O)C(C2OC[C@@H](O)[C@H](O)[C@H]2O)O1 (some centres unmarked) [Compound 2]
Mean DHCMiactive agent corr: 63% | dielectric capacitance of the stratum corneum (SC) (in words): high

CN1C(=O)OC(C2O[C@H](CO)[C@@H](O)[C@H](O)[C@H]2O)C1=O (some centres unmarked) [Compound 3]
Mean DHCMiactive agent corr: 51% | dielectric capacitance of the stratum corneum (SC) (in words): high

OCC(O)CO [Glycerol, glycerol, reference compound]
Mean DHCMiactive agent corr: 100%
